In PMC8508980, “Design, Synthesis and Anticancer Profile of New 4-(1H-benzo[d]imidazol-1-yl)pyrimidin-2-amine-Linked Sulfonamide Derivatives with V600EBRAF Inhibitory Effect” (International Journal of Molecular Sciences, 2021):

Assays:
SK-OV-3 = test: NCI 60 cell line screen; type: cell-based; conditions: Homo sapiens; SK-OV-3, Ovarian Cancer; read-out: Percent growth
Method in brief: (§1)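 Cells seeded, incubated 24 h, then a time-zero plate fixed with TCA. Drug added at five concentrations up to 10 µM for 48 h at 37 °C. Cells fixed with TCA (16% for suspension lines), stained with SRB, absorbance read at 515 nm.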

OVCAR-5 = test: NCI 60 cell line screen; type: cell-based; conditions: Homo sapiens; OVCAR-5, Ovarian Cancer; read-out: Percent growth
Method in brief: as §1

COLO 205 = test: NCI 60 cell line screen; type: cell-based; conditions: Homo sapiens; COLO 205, Colon Cancer; read-out: Percent growth
Method in brief: as §1

SK-MEL-2 = test: NCI 60 cell line screen; type: cell-based; conditions: Homo sapiens; SK-MEL-2, Melanoma; read-out: Percent growth
Method in brief: as §1

HCC-2998 = test: NCI 60 cell line screen; type: cell-based; conditions: Homo sapiens; HCC-2998, Colon Cancer; read-out: Percent growth
Method in brief: as §1

MCF7 = test: NCI 60 cell line screen; type: cell-based; conditions: Homo sapiens; MCF7, Breast Cancer; read-out: Percent growth
Method in brief: as §1

NCI-H322M = test: NCI 60 cell line screen; type: cell-based; conditions: Homo sapiens, Non-Small Cell Lung Cancer, read-out: Percent growth
Method in brief: as §1

SF-539 = test: NCI 60 cell line screen; type: cell-based; conditions: Homo sapiens; SF-539, CNS-Cancer; read-out: Percent growth
Method in brief: as §1

LOX IMVI = test: NCI 60 cell line screen; type: cell-based; conditions: Homo sapiens, Melanoma, read-out: Percent growth
Method in brief: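 Cells grown in RPMI 1640 with 5% FBS were plated 24 h before dosing, then exposed for 48 h at 37 °C to five drug concentrations (maximum 10 µM). Adherent cells were TCA-fixed, suspension cells fixed with 80% TCA. SRB absorbance at 515 nm, relative to time-zero and control plates, gave percent growth and TGI.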

SF-268 = test: NCI 60 cell line screen; type: cell-based; conditions: Homo sapiens; SF-268, CNS-Cancer; read-out: Percent growth
Method in brief: as §1

ACHN = test: NCI 60 cell line screen; type: cell-based; conditions: Homo sapiens, Renal Cancer, read-out: Percent growth
Method in brief: as §1

OVCAR-3 = test: NCI 60 cell line screen; type: cell-based; conditions: Homo sapiens; OVCAR-3, Ovarian Cancer; read-out: Percent growth
Method in brief: as §1

MALME-3M = test: NCI 60 cell line screen; type: cell-based; conditions: Homo sapiens, Melanoma, read-out: Percent growth
Method in brief: as §1

HCT-116 = test: NCI 60 cell line screen; type: cell-based; conditions: Homo sapiens; HCT-116, Colon Cancer; read-out: Percent growth
Method in brief: as §1

SN12C = test: NCI 60 cell line screen; type: cell-based; conditions: Homo sapiens, Renal Cancer, read-out: Percent growth
Method in brief: as §1

A498 = test: NCI 60 cell line screen; type: cell-based; conditions: Homo sapiens; A498, Renal Cancer; read-out: Percent growth
Method in brief: as §1

A549/ATCC = test: NCI 60 cell line screen; type: cell-based; conditions: Homo sapiens, Non-Small Cell Lung Cancer, read-out: Percent growth
Method in brief: as §1

DU-145 = test: NCI 60 cell line screen; type: cell-based; conditions: Homo sapiens; DU-145, Prostate Cancer; read-out: Percent growth
Method in brief: as §1

BT-549 = test: NCI 60 cell line screen; type: cell-based; conditions: Homo sapiens; BT-549, Breast Cancer; read-out: Percent growth
Method in brief: as §1

MDA-MB-231/ATCC = test: NCI 60 cell line screen; type: cell-based; conditions: Homo sapiens, Breast Cancer, read-out: Percent growth
Method in brief: as §1

MDA-MB-435 = test: NCI 60 cell line screen; type: cell-based; conditions: Homo sapiens; MDA-MB-435, Melanoma; read-out: Percent growth
Method in brief: as §1

SW-620 = test: NCI 60 cell line screen; type: cell-based; conditions: Homo sapiens; SW-620, Colon Cancer; read-out: Percent growth
Method in brief: as §1

[1] = system: non-small cell lung cancer cell lines; test: NCI 60 screen, sub-panel mean; type: cell-based, human; conditions: NCI-60, non-small cell lung cancer sub-panel
Experimental: Anticancer profiling over a panel of 60 cancer cell lines was carried out at the National Cancer Institute (NCI), Bethesda, Maryland, USA, https://dtp.cancer.gov/discovery_development/nci-60/methodology.htm (Last visit 22 September 2021), using the standard procedure (detailed procedure is located in the Supplementary Information page 50 s).
NCI standard procedure for 60 cell lines assay
The human tumor cell lines of the cancer screening panel are grown in RPMI 1640 mediu m containing 5% fetal bovine serum and 2 mM L-glutamine. For a typical screening experiment, cells are inoculated into 96 well microtiter plates in 100 μL at plating densities ranging from 5,000 to 40,000 cells/well depending on the doubling time of individual cell lines. After cell inoculation, the microtiter plates are incubated at 37° C, 5 % CO2, 95 % air and 100 % relative humidity for 24 h prior to addition of experimental drugs.
After 24 h, two plates of each cell line are fixed in situ with TCA, to represent a measurement of the cell population for each cell line at the time of drug addition (Tz). Experimental drugs are solubilized in dimethyl sulfoxide at 400-fold the desired final maximum test concentration (10 µM) and stored frozen prior to use. At the time of drug addition, an aliquot of frozen concentrate is thawed and diluted to twice the desired final maximum test concentration with co mp lete medium containing 50 μg/ml gentamicin. Additional four, 10-fold or ½ log serial dilutions are made to provide a total of five drug concentrations plus control. Aliquots of 100 μl of these different drug dilutions are added to the appropriate microtiter wells already containing 100 μl of medium, resulting in the required final drug concentrations.
Following drug addition, the plates are incubated for an additional 48 h at 37°C, 5 % CO2, 95 % air, and 100 % relative humidity. For adherent cells, the assay is terminated by the addition of cold TCA. Cells are fixed in situ by the gentle addition of 50 μl of cold 50 % (w/v) TCA (final concentration, 10 % TCA) and incubated for 60 minutes at 4°C. The supernatant is discarded, and the plates are washed five times with tap water and air dried. Sulforhodamine B (SRB) solution (100 μl) at 0.4 % (w/v) in 1 % acetic acid is added to each well, and plates are incubated for 10 minutes at room temperature. After staining, unbound dye is removed by washing five times with 1 % acetic acid and the plates are air dried. Bound stain is subsequently solubilized with 10 mM trizma base, and the absorbance is read on an automated plate reader at a wavelength of 515 nm. For suspension cells, the methodology is the same except that the assay is terminated by fixing settled cells at the bottom of the wells by g ently adding 50 μl of 80 % TCA (final concentration, 16 % TCA). Using the seven absorbance measurements [time zero, (Tz), control growth, (C), and test growth in the presence of drug at the five concentration levels (Ti)], the percentage growth is calculated at each of the drug concentrations levels. Percentage growth inhibition is calculated as:
[(Ti-Tz)/(C-Tz)] x 100 for concentrations for which Ti>/=Tz
[(Ti-Tz)/Tz] x 100 for concentrations for which Ti<Tz.
Three dose response parameters are calculated for each experimental agent. Growth inhibition of […]
resulting in a 50% reduction in the net protein increase (as measured by SRB staining) in control cells during the drug incubation. The drug concentration resulting in total growth inhibition […]
(TGI) is calculated from Ti = Tz.

SMILES | activity at 10 µM (SK-OV-3) | activity at 10 µM (OVCAR-5) | activity at 10 µM (COLO 205) | activity at 10 µM (SK-MEL-2) | activity at 10 µM (HCC-2998) | activity at 10 µM (MCF7) | activity at 10 µM (NCI-H322M) | activity at 10 µM (SF-539) | activity at 10 µM (LOX IMVI) | activity at 10 µM (SF-268) | activity at 10 µM (ACHN) | activity at 10 µM (OVCAR-3) | activity at 10 µM (MALME-3M) | activity at 10 µM (HCT-116) | activity at 10 µM (SN12C) | activity at 10 µM (A498) | activity at 10 µM (A549/ATCC) | activity at 10 µM (DU-145) | activity at 10 µM (BT-549) | activity at 10 µM (MDA-MB-231/ATCC) | further results
O=S(=O)(NCCNc1nccc(-n2cnc3ccccc32)n1)c1ccc(C(F)(F)F)cc1 [12e, N-(2-((4-(1H-benzo [d]imidazol-1-yl)pyrimidin-2-yl)amino)ethyl)-4-(trifluoromethyl)benzenesulfonamide] | 62.2% | 86.2% | 64.9% | 67.8% | 80.5% | 34.9% | 85.3% | 64.8% | 57.4% | 59.5% | 60.8% | 72.9% | 71.4% | 40.1% | 72.5% | 56.6% | 55.4% | 71.8% | 53.1% | 64% | activity at 10 µM (MDA-MB-435): 64.4%; activity at 10 µM (SW-620): 83.5%; mean percent inhibition [1]: 50%
O=S(=O)(NCCCNc1nccc(-n2cnc3ccccc32)n1)c1ccc(F)cc1 [12i, N-(3-((4-(1H-benzo [d]imidazol-1-yl)pyrimidin-2-yl)amino)propyl)-4-fluorobenzenesulfonamide] | 85.2% | 98.6% | 86% | 85.8% | 102% | 63.7% | 99.5% | 86.2% | 74% | 86.3% | 81.2% | 86.7% | 86.1% | 58.7% | 89% | 70.5% | 88.8% | 87.2% | 34.9% | 74.4% | activity at 10 µM (MDA-MB-435): 64.6%; activity at 10 µM (SW-620): 96.2%
O=S(=O)(NCCCNc1nccc(-n2cnc3ccccc32)n1)c1ccc(Cl)cc1 [12j, N-(3-((4-(1H-benzo [d]imidazol-1-yl)pyrimidin-2-yl)amino)propyl)-4-chloro benzenesulfonamide] | 117% | 105% | 110% | 108% | 108% | 89% | 104% | 91.9% | 107% | 98.2% | 94.1% | 107% | 103% | 94.1% | 91.7% | 73% | 99% | 100% | 90.1% | 89.4% | activity at 10 µM (MDA-MB-435): 95.5%; activity at 10 µM (SW-620): 110%
